# Counter-ions that a name gives are not always drawn. Like-named read-outs stand apart in the source and are kept apart here. Peptide text beside a SMILES is read from it.
# Tested on: SARS-CoV-2
# Test: microbe, parasite or virus in culture
# Settings: Severe acute respiratory syndrome coronavirus 2, Caco-2, 48 h; for inhibition at 10 µM: read-out: % Inh. (% Inhibition of SARS-CoV-2)
SMILES,inhibition at 10 µM [%],IC50 [µM],IC50 (read-out: pIC50 (converted)) [µM]
CC(=O)OCC(=O)[C@@]1(O)CC[C@H]2[C@@H]3CCC4=CC(=O)C=C[C@]4(C)[C@H]3[C@@H](O)C[C@@]21C [PREDNISOLONE ACETATE],60,,
O=C(Nc1ccc(Cl)cc1)Nc1ccc(Cl)c(Cl)c1 [Triclocarban],97.2,,
Cc1c(-c2ccc(-c3ccccc3F)cc2)nc2ccc(F)cc2c1C(=O)O [Brequinar sodium salt hydrate],61,,
COc1cc(N2CCC(N3CCN(C)CC3)CC2)ccc1Nc1ncnc(Nc2ccccc2S(=O)(=O)C(C)C)n1 [ASP3026],62.2,,
CCOc1cc2ncc(C#N)c(Nc3ccc(OCc4cccc(F)c4)c(Cl)c3)c2cc1NC(=O)/C=C/CN(C)C [HKI-357],77.7,,
O=C(OCC(COC(=O)c1cccnc1)(COC(=O)c1cccnc1)COC(=O)c1cccnc1)c1cccnc1 [niceritrol],50.1,,
FC(F)(F)c1ccc(/C=C/c2nc(COc3ccc(CCCCn4ccnn4)cc3)co2)cc1 [mubritinib],82.2,,
CC[C@@]1(O)C(=O)OCc2c1cc1n(c2=O)Cc2cc3ccccc3nc2-1 [camptothecin],81.8,,
Cn1cnc2c1c(=O)[nH]c(=O)n2C [THEOBROMINE],52.4,,
"CN1CCN(c2ccc(C(=O)Nc3n[nH]c4ccc(Cc5cc(F)cc(F)c5)cc34)c(NC3CCOCC3)c2)CC1 [Entrectinib (RXDX-101), Entrectinib]",70,,
C[C@@H](c1nc(-c2ccc(C#N)cc2)cs1)[C@](O)(Cn1cncn1)c1cc(F)ccc1F [Isavuconazole],92.8,,
"CCOc1cc2ncc(C#N)c(Nc3ccc(F)c(Cl)c3)c2cc1NC(=O)/C=C/CN(C)C [Pelitinib (EKB-569), Pelitinib]",83.4,,
O=C(O)CCCCC(=O)O [adipic-acid],55.9,,
Nc1ccccc1C(=O)O [anthranilic-acid],50,,
O=C(O)CCCO [SODIUM OXYBATE],57.3,,
O=c1[nH]c2ccccc2n1C1CCN(CCOc2ccccc2)CC1 [oxiperomide],77.9,,
COC(=O)C1=C(C)NC(C)=C(C(=O)O[C@H]2CCN(Cc3ccccc3)C2)[C@H]1c1cccc([N+](=O)[O-])c1 [Barnidipine HCl],83.5,24.3,24.5
CC(C)C[C@H](NC(=O)[C@@H]1CCCN1)C(=O)NCC(N)=O [prolylleucylglycinamide] (H-Pro-Leu-Gly-NH2),70.6,,
[H]/N=C(\N/C(=N/[H])NCCCCCCNC(=N)NC(=N)Nc1ccc(Cl)cc1)Nc1ccc(Cl)cc1 [CHLORHEXIDINE DIHYDROCHLORIDE],86.4,,
O=C(Cn1ccnc1[N+](=O)[O-])NCCO [etanidazole],57.3,,
"Cc1cc(C)c2c(c1)[C@@H](N(Cc1cc(C(F)(F)F)cc(C(F)(F)F)c1)c1nnn(C)n1)CCCN2C[C@H]1CC[C@H](C(=O)O)CC1 [Evacetrapib (LY2484595), Evacetrapib]",94.9,26.7,26.9
FC(F)c1nc2ccccc2n1-c1nc(N2CCOCC2)nc(N2CCOCC2)n1 [ZSTK474],90.9,,
Cc1ccnc2c1CCCC2C(N)=S (stereo not shown) [isotiquimide],50,,
"Clc1ccc(C(Cn2ccnc2)OCc2c(Cl)cccc2Cl)c(Cl)c1 (stereo not shown) [Isoconazole nitrate (Travogen), Isoconazole nitrate]",75.9,,

SMILES,inhibition at 10 µM [%],IC50 [µM],IC50 (read-out: pIC50 (converted)) [µM]
O=C1NC(=S)NC(=O)C1C(=O)Nc1ccccc1 [merbarone],50.4,,
C[C@H](/C=C/[C@H](C)C(C)(C)O)[C@H]1CC[C@H]2/C(=C/C=C3C[C@@H](O)C[C@H](O)C3)CCC[C@]12C [PARICALCITOL],86,,
Clc1ccc(C(Cn2ccnc2)OCc2csc3c(Cl)cccc23)c(Cl)c1 (stereo not shown) [Sertaconazole nitrate],88.9,,
Cc1nc2ccccn2c(=O)c1CCN1CCC(C(=O)c2ccc(F)cc2)CC1 [pirenperone],64.1,,
COCC(=O)O[C@]1(CCN(C)CCCc2nc3ccccc3[nH]2)CCc2cc(F)ccc2[C@@H]1C(C)C [mibefradil],52.4,,
O=C1NCCN1CCN1CCC(c2cn(-c3ccc(F)cc3)c3ccc(Cl)cc23)CC1 [sertindole],90.3,,
C[C@]12CC[C@H](O)C[C@H]1CC[C@@H]1[C@@H]2CC[C@]2(C)[C@@H](C3=CC(=O)OC3)CC[C@]12O [digitoxigenin],60,,
C=CC(N)CCC(=O)O (stereo not shown) [Vigabatrin],52.5,,
C[C@]12CC[C@H](O)C[C@H]1CC[C@@H]1[C@@H]2C[C@@H](O)[C@]2(C)[C@@H](C3=CC(=O)OC3)CC[C@]12O [Digoxigenin],66.8,,
CCC[C@H](Nc1nc(-c2ccc(NC(=O)NCC)c(OC)c2)ncc1C)c1cccnc1 [CYT997],58.6,,
CCNC1=Nc2ccc(Cl)cc2C(C)(c2ccccc2)O1 (stereo not shown) [Etifoxine (hydrochloride)],,9.29,9.33
C=C[C@H]1CN2CC[C@H]1C[C@H]2[C@H](OC(=O)OCC)c1ccnc2ccc(OC)cc12 [QUININE ETHYL CARBONATE],59.1,,
Nc1cc(C(F)(F)F)c(-c2nc(N3CCOCC3)nc(N3CCOCC3)n2)cn1 [Bimiralisib],97.2,,
O=C(CC(c1ccccc1)c1ccccc1)N1CCN(C(c2ccccc2)c2ccccc2)CC1 [NP118809],60.8,,
CN1C[C@H](CNC(=O)OCc2ccccc2)C[C@@H]2c3cccc4c3c(cn4C)C[C@H]21 [METERGOLINE],54.6,,
C/C=C/C=C/C(=O)O [sorbic-acid],65.5,,
"C[C@]12CC[C@H](O)CC1=CC[C@@H]1[C@@H]2CC[C@]2(C)C(n3cnc4ccccc43)=CC[C@@H]12 [Galeterone (TOK-001), Galeterone]",69,,
COc1cccc2cc(-c3nc([C@H]4CC[C@H](C(=O)O)CC4)n4ncnc(N)c34)[nH]c12 [OSI-027],105,,
"C=CC(=O)Nc1cccc(Nc2nc(Nc3ccc(N4CCN(C(C)=O)CC4)cc3OC)ncc2C(F)(F)F)c1 [Rociletinib (CO-1686, AVL-301), Rociletinib]",84.9,,
O=C(NCc1ccncc1)C12CC3CC(C1)CC(c1ccc(Cl)cc1)(C3)C2 [ABC294640],81.4,38.2,38
O=C(Nc1cc(Cl)cc(Cl)c1O)c1c(O)c(Cl)cc(Cl)c1Cl [OXYCLOZANIDE],94.4,,
"CCCn1c(=O)c2[nH]c(-c3ccccc3)nc2n(CCC)c1=O [1,3-dipropyl-8-phenylxanthine]",57.2,,
CCN(CC)CCO[C@H]1CC[C@@]2(C)C(=CC[C@@H]3[C@@H]2CC[C@]2(C)C(=O)CC[C@@H]32)C1 [U-18666A],77.4,,
COc1ccc(N(C)c2nc(C)nc3ccccc23)cc1 [verubulin],50.9,,

SMILES,inhibition at 10 µM [%],IC50 [µM],IC50 (read-out: pIC50 (converted)) [µM]
Nc1c2ccccc2nc2ccccc12 [AMINACRINE],64.1,,
"O[C@@H](COc1cccc2ncccc12)CN1CCN([C@@H]2c3ccccc3[C@@H]3[C@H](c4ccccc42)C3(F)F)CC1 [LY335979 (Zosuquidar trihydrochloride), Zosuquidar trihydrochloride]",93,26.8,26.9
COc1ccc(C(Cl)=C(c2ccc(OC)cc2)c2ccc(OC)cc2)cc1 [chlorotrianisene],55.3,,
O=C(O)c1ccc(OCCn2ccnc2)cc1 [Dazoxiben],56,,
N#Cc1cn([C@@H]2O[C@H](CO)[C@@H](O)[C@H]2O)c2ncnc(N)c12 [toyocamycin],68.4,,
COC(=O)Nc1nc2ccc(C(=O)c3cccs3)cc2[nH]1 [nocodazole],66.1,,
N#CC1(c2ccc(NC(=O)c3cccnc3NCc3ccncc3)cc2)CCCC1 [Apatinib mesylate],70.9,,
COc1ccc(-n2nc(C(N)=O)c3c2C(=O)N(c2ccc(N4CCCCC4=O)cc2)CC3)cc1 [APIXABAN],78,,
COc1ccc(/C=C/C(=O)O)cc1 [trans-4-Methoxycinnamic-acid],53.6,,
O=C1c2cccc3c2[C@H](CCC3)CN1[C@@H]1CN2CCC1CC2 [Palonosetron HCl],57.4,,
COc1cc2nc(N3CCN(C(=O)c4ccco4)CC3)nc(N)c2cc1OC [PRAZOSIN HYDROCHLORIDE],58,,
CCNC(=O)c1noc(-c2cc(C(C)C)c(O)cc2O)c1-c1ccc(CN2CCOCC2)cc1 [Luminespib],104,,
O=CC=Cc1ccccc1 [cinnamaldehyde],62.3,,
OCCOc1ccc(/C(=C(/CCCl)c2ccccc2)c2ccccc2)cc1 [Ospemifene],52.9,,
Cc1cc2c(C(C)C)c(O)c(O)c(C=O)c2c(O)c1-c1c(C)cc2c(C(C)C)c(O)c(O)c(C=O)c2c1O [gossypol],66.3,,
C#Cc1cccc(Nc2ncnc3cc4c(cc23)OCCOCCOCCO4)c1 [Icotinib],68.1,,
N=C(N)c1ccc(OCCCCCOc2ccc(C(=N)N)cc2)cc1 [PENTAMIDINE ISETHIONATE],54.6,,
O=C1NC(c2cccc([N+](=O)[O-])c2)=CCN1c1ccccc1O [icilin],55.1,,
C=CCNc1c(O)cc2c(O)c1C[C@@H](C)C[C@H](OC)[C@H](O)[C@@H](C)/C=C(\C)[C@H](OC(N)=O)[C@@H](OC)/C=C\C=C(/C)C(=O)N2 [Retaspimycin (Hydrochloride)],74.7,,
"COc1cc2c(Nc3ccc(Br)cc3F)ncnc2cc1OCC1CCN(C)CC1 [Vandetanib (ZD6474), Vandetanib]",51.2,,
COc1ccc(Cc2nccc3cc(OC)c(OC)cc23)cc1OC [PAPAVERINE HYDROCHLORIDE],,0.95,0.955
COc1cc(C)c2c(Oc3cccc(C(F)(F)F)c3)c(OC)cc(NC(C)CCCN)c2n1 (stereo not shown) [tafenoquine],90,,
O=C(c1ccc(F)c(F)c1Nc1ccc(I)cc1F)N1CC(O)([C@@H]2CCCCN2)C1 [Cobimetinib],61.6,,
"Cc1c(CN2CCN(C(=O)[C@H](C)O)CC2)sc2c(N3CCOCC3)nc(-c3cnc(N)nc3)nc12 [Apitolisib (GDC-0980, RG7422), Apitolisib]",102,,
